Laboratory results from PMC10850145, “Hormonal steroids induce multidrug resistance and stress response genes in Neisseria gonorrhoeae by binding to MtrR” (Nature Communications, 2024).
Values joined by “and” are separate entries in the source; they are usually repeats but may differ in a detail not shown here. Identical values can stand only once. Like-named read-outs stand apart in the source and are kept apart here.

Tested on: mtrC-lacZ expression
Format: cell-based, Neisseria gonorrhoeae
Details: for β-galactosidase activity, Mean / β-galactosidase activity, single replicate: mtrCDE block (c1-c37), ΔmtrR + mtrR R176E in trans; for β-galactosidase activity, individual replicate / β-galactosidase activity, Miller units (single replicate): mtrR WT in cis; for β-galactosidase activity, individual replicate: single replicate values, second (right) block
[1] = mtrC-lacZ, ΔmtrR + mtrR D171A in trans, 6.25 µM hormone, single replicate
[2] = mtrC-lacZ, ΔmtrR + mtrR D171A in trans, 12.5 µM hormone, single replicate
[3] = mtrC-lacZ, ΔmtrR + mtrR D171A in trans, 25 µM hormone, single replicate
[4] = mtrC-lacZ, ΔmtrR + mtrR D171A in trans, 50 µM hormone, single replicate
[5] = mtrC-lacZ, ΔmtrR + mtrR WT in trans, 6.25 µM hormone, single replicate
[6] = mtrC-lacZ, ΔmtrR + mtrR WT in trans, 12.5 µM hormone, single replicate
[7] = mtrC-lacZ, ΔmtrR + mtrR WT in trans, 25 µM hormone, single replicate
[8] = mtrC-lacZ, ΔmtrR + mtrR WT in trans, 50 µM hormone, single replicate

For `C[C@]12CC[C@@H]3c4ccc(O)cc4CC[C@H]3[C@@H]1CC[C@@H]2O` [β-Estradiol, β-estradiol], the “Miller units, Mean” value (Mean of plate rows 1-4, plate columns 1-6 (first strain), 6.25 µM hormone) was 83 Miller units, the “Miller units, Mean” value (Mean of plate rows 1-4, plate columns 1-6 (first strain), 12.5 µM hormone) was 113 Miller units and the “Miller units, Mean” value (Mean of plate rows 1-4, plate columns 1-6 (first strain), 25 µM hormone) was 148 Miller units. For the same compound, the “Miller units, Mean” value (Mean of plate rows 1-4, plate columns 1-6 (first strain), 50 µM hormone) was 162 Miller units, the “Miller units, Mean” value (Mean of plate rows 1-4, plate columns 7-12 (second strain), 6.25 µM hormone) was 163 Miller units and the “Miller units, Mean” value (Mean of plate rows 1-4, plate columns 7-12 (second strain), 12.5 µM hormone) was 152 Miller units. For the same compound, the “Miller units, Mean” value (Mean of plate rows 1-4, plate columns 7-12 (second strain), 25 µM hormone) was 175 Miller units, the “Miller units, Mean” value (Mean of plate rows 1-4, plate columns 7-12 (second strain), 50 µM hormone) was 160 Miller units and the “induction of mtrC expression” value (complemented (MtrR+) strains, increasing hormone) was “could be induced”. The “induction of mtrC expression” value (loss of MtrR or MtrR-D171A strain) was “abrogated”, the “Miller units, Mean” value (mtrC-lacZ, WT strain, 6.25 µM hormone) was 131 Miller units and the “β-galactosidase activity (Miller units)” value (mtrC-lacZ, WT strain, 6.25 µM hormone, single replicate) was 164 Miller units and 114 Miller units and 120 Miller units. The “Miller units, Mean” value (mtrC-lacZ, WT strain, 12.5 µM hormone) was 148 Miller units, the “β-galactosidase activity (Miller units)” value (mtrC-lacZ, WT strain, 12.5 µM hormone, single replicate) was 178 Miller units and 161 Miller units and 132 Miller units and the “Miller units, Mean” value (mtrC-lacZ, WT strain, 25 µM hormone) was 177 Miller units. For the same compound, the “β-galactosidase activity (Miller units)” value (mtrC-lacZ, WT strain, 25 µM hormone, single replicate) was 160 Miller units and 189 Miller units, the “Miller units, Mean” value (mtrC-lacZ, WT strain, 50 µM hormone) was 224 Miller units and the “β-galactosidase activity (Miller units)” value (mtrC-lacZ, WT strain, 50 µM hormone, single replicate) was 242 Miller units and 240 Miller units and 211 Miller units. The “Miller units, Mean” value (mtrC-lacZ, WT, 6.25 µM hormone) was 131 Miller units, the Miller units (mtrC-lacZ, WT, 6.25 µM hormone, single replicate (plate data)) was 164 Miller units and 114 Miller units and 128 Miller units and 120 Miller units and the “Miller units, Mean” value (mtrC-lacZ, WT, 12.5 µM hormone) was 148 Miller units. The Miller units (mtrC-lacZ, WT, 12.5 µM hormone, single replicate (plate data)) was 178 Miller units and 161 Miller units and 120 Miller units and 132 Miller units, the “Miller units, Mean” value (mtrC-lacZ, WT, 25 µM hormone) was 177 Miller units and the Miller units (mtrC-lacZ, WT, 25 µM hormone, single replicate (plate data)) was 160 Miller units and 176 Miller units and 189 Miller units. For the same compound, the “Miller units, Mean” value (mtrC-lacZ, WT, 50 µM hormone) was 224 Miller units, the Miller units (mtrC-lacZ, WT, 50 µM hormone, single replicate (plate data)) was 242 Miller units and 240 Miller units and 203 Miller units and 211 Miller units and the “Miller units, Mean” value (mtrC-lacZ, ΔmtrR + mtrR D171A in trans, 6.25 µM hormone) was 148.9 Miller units. The Miller units [1] was 158 Miller units and 155 Miller units, the “β-galactosidase activity (Miller units)” value [1] was 155 Miller units and 147 Miller units and 135 Miller units and the “Miller units, Mean” value (mtrC-lacZ, ΔmtrR + mtrR D171A in trans, 12.5 µM hormone) was 157.2 Miller units. The Miller units [2] was 167 Miller units and 147 Miller units, the “β-galactosidase activity (Miller units)” value [2] was 147 Miller units and 195 Miller units and 119 Miller units and the “Miller units, Mean” value (mtrC-lacZ, ΔmtrR + mtrR D171A in trans, 25 µM hormone) was 167.0 Miller units. The Miller units [3] was 203 Miller units and 162 Miller units, the “β-galactosidase activity (Miller units)” value [3] was 162 Miller units and 132 Miller units and 171 Miller units and the “Miller units, Mean” value (mtrC-lacZ, ΔmtrR + mtrR D171A in trans, 50 µM hormone) was 162.7 Miller units. The Miller units [4] was 193 Miller units, the “β-galactosidase activity (Miller units)” value [4] was 188 Miller units and 124 Miller units and 146 Miller units and the “Miller units, Mean” value (mtrC-lacZ, ΔmtrR + mtrR WT in trans, 6.25 µM hormone) was 116 Miller units. For the same compound, the Miller units [5] was 106 Miller units and 141 Miller units and 104 Miller units and 116 Miller units, the “β-galactosidase activity (Miller units)” value [5] was 106 Miller units and 141 Miller units and 104 Miller units and 116 Miller units and the “Miller units, Mean” value (mtrC-lacZ, ΔmtrR + mtrR WT in trans, 12.5 µM hormone) was 113 Miller units. The Miller units [6] was 119 Miller units and 115 Miller units and 110 Miller units, the “β-galactosidase activity (Miller units)” value [6] was 119 Miller units and 115 Miller units and 110 Miller units and the “Miller units, Mean” value (mtrC-lacZ, ΔmtrR + mtrR WT in trans, 25 µM hormone) was 138 Miller units. The Miller units [7] was 133 Miller units and 147 Miller units and 127 Miller units and 144 Miller units, the “β-galactosidase activity (Miller units)” value [7] was 133 Miller units and 147 Miller units and 127 Miller units and 144 Miller units and the “Miller units, Mean” value (mtrC-lacZ, ΔmtrR + mtrR WT in trans, 50 µM hormone) was 158 Miller units. The Miller units [8] was 176 Miller units and 161 Miller units and 132 Miller units and 164 Miller units, the “β-galactosidase activity (Miller units)” value [8] was 176 Miller units and 161 Miller units and 132 Miller units and 164 Miller units and the “Miller units, Mean” value (mtrC-lacZ, ΔmtrR strain, 6.25 µM hormone) was 210 Miller units. The “β-galactosidase activity (Miller units)” value (mtrC-lacZ, ΔmtrR strain, 6.25 µM hormone, single replicate) was 187 Miller units and 203 Miller units and 200 Miller units, the “Miller units, Mean” value (mtrC-lacZ, ΔmtrR strain, 12.5 µM hormone) was 218 Miller units and the “β-galactosidase activity (Miller units)” value (mtrC-lacZ, ΔmtrR strain, 12.5 µM hormone, single replicate) was 197 Miller units and 237 Miller units and 209 Miller units. For the same compound, the “Miller units, Mean” value (mtrC-lacZ, ΔmtrR strain, 25 µM hormone) was 243 Miller units, the “β-galactosidase activity (Miller units)” value (mtrC-lacZ, ΔmtrR strain, 25 µM hormone, single replicate) was 261 Miller units and 223 Miller units and 202 Miller units and the “Miller units, Mean” value (mtrC-lacZ, ΔmtrR strain, 50 µM hormone) was 255 Miller units. For the same compound, the “β-galactosidase activity (Miller units)” value (mtrC-lacZ, ΔmtrR strain, 50 µM hormone, single replicate) was 220 Miller units and 317 Miller units, the “Miller units, Mean” value (mtrC-lacZ, ΔmtrR, 6.25 µM hormone) was 210 Miller units and the Miller units (mtrC-lacZ, ΔmtrR, 6.25 µM hormone, single replicate (plate data)) was 203 Miller units and 200 Miller units and 187 Miller units and 250 Miller units. For the same compound, the “Miller units, Mean” value (mtrC-lacZ, ΔmtrR, 12.5 µM hormone) was 218 Miller units, the Miller units (mtrC-lacZ, ΔmtrR, 12.5 µM hormone, single replicate (plate data)) was 237 Miller units and 209 Miller units and 197 Miller units and 228 Miller units and the “Miller units, Mean” value (mtrC-lacZ, ΔmtrR, 25 µM hormone) was 243 Miller units. The Miller units (mtrC-lacZ, ΔmtrR, 25 µM hormone, single replicate (plate data)) was 223 Miller units and 202 Miller units and 261 Miller units and 287 Miller units, the “Miller units, Mean” value (mtrC-lacZ, ΔmtrR, 50 µM hormone) was 255 Miller units and the Miller units (mtrC-lacZ, ΔmtrR, 50 µM hormone, single replicate (plate data)) was 317 Miller units and 220 Miller units and 261 Miller units. The “β-galactosidase activity, Mean” value (6.25 µM) was 194 Miller units, the “β-galactosidase activity, single replicate” value (6.25 µM) was 207 Miller units and 196 Miller units and 188 Miller units and the “β-galactosidase activity, Mean” value (12.5 µM) was 205 Miller units. For the same compound, the “β-galactosidase activity, single replicate” value (12.5 µM) was 258 Miller units and 180 Miller units and 177 Miller units and 206 Miller units, the “β-galactosidase activity, Mean” value (25 µM) was 197 Miller units and the “β-galactosidase activity, single replicate” value (25 µM) was 241 Miller units and 190 Miller units and 188 Miller units and 169 Miller units. For the same compound, the “β-galactosidase activity, Mean” value (50 µM) was 269 Miller units, the “β-galactosidase activity, single replicate” value (50 µM) was 316 Miller units and 254 Miller units and 275 Miller units and 231 Miller units and the “β-galactosidase activity, individual replicate” value (6.25 µM hormone) was 54 Miller units and 39 Miller units. The “β-galactosidase activity, Miller units (single replicate)” value (shortened to “β-galactosidase activity, Miller units”) (6.25 µM, first data set (c15-c36)) was 147 Miller units and 157 Miller units and 114 Miller units and 129 Miller units, the “β-galactosidase activity, Miller units” value (6.25 µM, second data set (c53-c74)) was 43 Miller units and 41 Miller units and the “β-galactosidase activity, individual replicate” value (12.5 µM hormone) was 72 Miller units and 56 Miller units. For the same compound, the “β-galactosidase activity, Miller units” value (12.5 µM, first data set (c15-c36)) was 160 Miller units and 155 Miller units and 156 Miller units and 149 Miller units, the “β-galactosidase activity, Miller units” value (12.5 µM, second data set (c53-c74)) was 45 Miller units and 43 Miller units and the “β-galactosidase activity, individual replicate” value (25 µM hormone) was 63 Miller units. For the same compound, the “β-galactosidase activity, Miller units” value (25 µM, first data set (c15-c36)) was 152 Miller units and 181 Miller units and 159 Miller units and 157 Miller units and the “β-galactosidase activity, Miller units” value (25 µM, second data set (c53-c74)) was 63 Miller units and 52 Miller units.
